{
  "source": "patent US20260048043A1",
  "about": "“HIGH LOADING ORAL FILM FORMULATION WITH IMPROVED BIOAVAILABILITY” (INTELGENX CORP., priority 2022, published 2026)",
  "experiment": "Compatibility of maropitant with polyacid polymers (precipitate formation)",
  "type": "physicochemical",
  "conditions": "neutral pH",
  "data": [
    {"smiles": "COc1ccc(C(C)(C)C)cc1CN[C@H]1C2CCN(CC2)[C@H]1C(c1ccccc1)c1ccccc1", "note": "[Maropitant, (2S,3S)-(Diphenylmethyl)-N-[2-methoxy-5-(2-methyl-2-propanyl)benzyl]quinuclidin-3-amine]", "values": [
      {"measurement": "precipitate formation with polyacid polymer(s) such as CMC, Carbomer and polycarbophil", "value": "precipitate was formed"}
    ]}
  ]
}
